The text below walks through data of patent US11382918B2, “Methods for treating Huntington's Disease” (PTC Therapeutics, Inc., priority 2017, dated 2022).

The structures appear in SMILES notation. Some results are limits rather than exact numbers.

The subject of the assay is Endogenous Huntingtin Protein (HTT). Put plainly: Endogenous Huntingtin Protein Assay (ELISA-based MSD electrochemiluminescence). Format: cell-based. Particulars: Table 1. In short, it runs like this:
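HTT protein in lysates was measured by electrochemiluminescence on the MSD platform. Rabbit monoclonal 5656S followed by SULFO-TAG anti-rabbit antibody served for detection after overnight 4 °C capture with MAB2166 or the polyglutamine-directed MW1 antibody.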
In general terms: An ELISA detects its analyte on a solid surface through an enzyme-linked reagent.
Turning to `Cc1cn2cc(-c3cc(=O)n4cc(N5CCN[C@H](C)C5)ccc4n3)cc(C(F)(F)F)c2n1` [compound 734, 7-[(3R)-3-methylpiperazin-1-yl]-2-[2-methyl-8-(trifluoromethyl)imidazo[1,2-a]pyridin-6-yl]-4H-pyrido[1,2-a]pyrimidin-4-one], the IC50 is 3 to 33 µM. `Cc1cn2cc(-c3cc(=O)n4cc(N5CCN[C@@H](C)C5)ccc4n3)cc(C(F)(F)F)c2n1` [compound 735, 7-[(3S)-3-methylpiperazin-1-yl]-2-[2-methyl-8-(trifluoromethyl)imidazo[1,2-a]pyridin-6-yl]-4H-pyrido[1,2-a]pyrimidin-4-one] registered an IC50 of 3 to 33 µM. The molecule `Cc1cn2cc(-c3cc(=O)n4cc(N5C[C@@H](C)N[C@@H](C)C5)ccc4n3)cc(C(F)(F)F)c2n1` [compound 736, 7-[(3R,5S)-3,5-dimethylpiperazin-1-yl]-2-[2-methyl-8-(trifluoromethyl)imidazo[1,2-a]pyridin-6-yl]-4H-pyrido[1,2-a]pyrimidin-4-one] displayed an IC50 of 3 to 33 µM. For `Cc1cc(-c2cc(=O)n3cc(N4CCNCC4)ccc3n2)cc2cn(C)nc12` [compound 738, 2-(2,7-dimethyl-2H-indazol-5-yl)-7-(piperazin-1-yl)-4H-pyrido[1,2-a]pyrimidin-4-one] the value was 0.1 to 0.5 µM. On to `Cc1cc(-c2cc(=O)n3cc(C4CCNCC4)ccc3n2)cc2cn(C)nc12` [compound 739, 2-(2,7-dimethyl-2H-indazol-5-yl)-7-(piperidin-4-yl)-4H-pyrido[1,2-a]pyrimidin-4-one], for which the IC50 was in the range of 0.5 to 1 µM. The molecule `Cc1cc(-c2cc(=O)n3cc(N4CCN[C@H](C)C4)ccc3n2)cc2cn(C)nc12` [compound 741, 2-(2,7-dimethyl-2H-indazol-5-yl)-7-[(3R)-3-methylpiperazin-1-yl]-4H-pyrido[1,2-a]pyrimidin-4-one] showed an IC50 of 0.5 to 1 µM.

With `CCc1nc(C)cn2cc(-c3cc(=O)n4cc(N5C[C@@H](C)N[C@@H](C)C5)ccc4n3)cc12` [compound 748, 7-[(3R,5S)-3,5-dimethylpiperazin-1-yl]-2-(1-ethyl-3-methylpyrrolo[1,2-a]pyrazin-7-yl)-4H-pyrido[1,2-a]pyrimidin-4-one], the 50% inhibitory concentration (IC50) was 0.5 to 1 µM. Molecule `CCc1nc(C)cn2cc(-c3cc(=O)n4cc(N5CCCNCC5)ccc4n3)cc12` [compound 749, 7-(1,4-diazepan-1-yl)-2-(1-ethyl-3-methylpyrrolo[1,2-a]pyrazin-7-yl)-4H-pyrido[1,2-a]pyrimidin-4-one] yielded an IC50 of 3 to 33 µM. For the molecule `Cc1cc(-c2cc(=O)n3cc(N4CCN[C@@H](C)C4)ccc3n2)cc2cn(C)nc12` [compound 750, 2-(2,7-dimethyl-2H-indazol-5-yl)-7-[(3S)-3-methylpiperazin-1-yl]-4H-pyrido[1,2-a]pyrimidin-4-one], the IC50 was 3 to 33 µM. In turn, `Cc1cc(-c2cc(=O)n3cc(N4CCN(C)[C@@H](C)C4)ccc3n2)cc2cn(C)nc12` [compound 751, 2-(2,7-dimethyl-2H-indazol-5-yl)-7-[(3S)-3,4-dimethylpiperazin-1-yl]-4H-pyrido[1,2-a]pyrimidin-4-one] registered an IC50 of 3 to 33 µM.

`Cc1cc(-c2cc(=O)n3cc(C4CCN(C)CC4)ccc3n2)cc2cn(C)nc12` [compound 752, 2-(2,7-dimethyl-2H-indazol-5-yl)-7-(1-methylpiperidin-4-yl)-4H-pyrido[1,2-a]pyrimidin-4-one] had an IC50 of 0.1 to 0.5 µM. Molecule `CCN1CCC(c2ccc3nc(-c4cc(C)c5nn(C)cc5c4)cc(=O)n3c2)CC1` [compound 753, 2-(2,7-dimethyl-2H-indazol-5-yl)-7-(1-ethylpiperidin-4-yl)-4H-pyrido[1,2-a]pyrimidin-4-one] showed an IC50 of 0.1 to 0.5 µM. In turn, `Cc1cc(N2CCNCC2)cn2c(=O)cc(-c3ccc4nn(C)cc4c3)nc12` [compound 754, 9-methyl-2-(2-methyl-2H-indazol-5-yl)-7-(piperazin-1-yl)-4H-pyrido[1,2-a]pyrimidin-4-one] came in with an IC50 of 0.5 to 1 µM. Regarding `Cc1cc(N2CCN[C@H](C)C2)cn2c(=O)cc(-c3ccc4nn(C)cc4c3)nc12` [compound 755, 9-methyl-2-(2-methyl-2H-indazol-5-yl)-7-[(3R)-3-methylpiperazin-1-yl]-4H-pyrido[1,2-a]pyrimidin-4-one], the IC50 fell in the range of 1 to 3 µM.

`Cc1cc(N2CCN[C@@H](C)C2)cn2c(=O)cc(-c3ccc4nn(C)cc4c3)nc12` [compound 756, 9-methyl-2-(2-methyl-2H-indazol-5-yl)-7-[(3S)-3-methylpiperazin-1-yl]-4H-pyrido[1,2-a]pyrimidin-4-one] registered an IC50 of 0.1 to 0.5 µM.

The molecule `CCc1nc(C)cn2nc(-c3cc(=O)n4cc(C5=CCNCC5)ccc4n3)cc12` [compound 763, 2-(4-ethyl-6-methylpyrazolo[1,5-a]pyrazin-2-yl)-7-(1,2,3,6-tetrahydropyridin-4-yl)-4H-pyrido[1,2-a]pyrimidin-4-one] displayed an IC50 of 0.1 to 0.5 µM. In the case of `CCCc1nc(C)cn2nc(-c3cc(=O)n4cc(C5CCNCC5)ccc4n3)cc12` [compound 766, 2-(6-methyl-4-propylpyrazolo[1,5-a]pyrazin-2-yl)-7-(piperidin-4-yl)-4H-pyrido[1,2-a]pyrimidin-4-one], the IC50 was 0.5 to 1 µM. Take `Cc1cc(-c2cc(=O)n3cc(N4CCN(C)CC4)ccc3n2)cc2cn(C)nc12` [compound 768, 2-(2,7-dimethyl-2H-indazol-5-yl)-7-(4-methylpiperazin-1-yl)-4H-pyrido[1,2-a]pyrimidin-4-one]: the IC50 is 1 to 3 µM. `Cc1cn2nc(-c3cc(=O)n4cc(N5CC[C@@H](CN(C)C)C5)ccc4n3)cc2c(C)n1` [compound 770, 7-{(3S)-3-[(dimethylamino)methyl]pyrrolidin-1-yl}-2-(4,6-dimethylpyrazolo[1,5-a]pyrazin-2-yl)-4H-pyrido[1,2-a]pyrimidin-4-one] returned an IC50 of 3 to 33 µM. Consider `CCc1nc(C)cn2nc(-c3cc(=O)n4cc(C5CCNCC5)cc(C)c4n3)cc12` [compound 771, 2-(4-ethyl-6-methylpyrazolo[1,5-a]pyrazin-2-yl)-9-methyl-7-(piperidin-4-yl)-4H-pyrido[1,2-a]pyrimidin-4-one], for which the IC50 fell in the range of 0.5 to 1 µM.

In the case of `CCc1nc(C)cn2nc(-c3cc(=O)n4cc(C5=CCNCC5)cc(C)c4n3)cc12` [compound 773, 2-(4-ethyl-6-methylpyrazolo[1,5-a]pyrazin-2-yl)-9-methyl-7-(1,2,3,6-tetrahydropyridin-4-yl)-4H-pyrido[1,2-a]pyrimidin-4-one], the IC50 lay in the range of 3 to 33 µM.

`CCc1nc(C)cn2nc(-c3cc(=O)n4cc(C5CCN(C)CC5)cc(C)c4n3)cc12` [compound 774, 2-(4-ethyl-6-methylpyrazolo[1,5-a]pyrazin-2-yl)-9-methyl-7-(1-methylpiperidin-4-yl)-4H-pyrido[1,2-a]pyrimidin-4-one] showed an IC50 of 3 to 33 µM. As for `Cc1cc(-c2cc(=O)n3cc(N4CCNCC4)ccc3n2)cc2cnn(C)c12` [compound 776, 2-(1,7-dimethyl-1H-indazol-5-yl)-7-(piperazin-1-yl)-4H-pyrido[1,2-a]pyrimidin-4-one], the IC50 lay in the range of 3 to 33 µM.

For the molecule `Cc1cc(-c2cc(=O)n3cc(N4CCN[C@@H](C)C4)ccc3n2)cc2cnn(C)c12` [compound 777, 2-(1,7-dimethyl-1H-indazol-5-yl)-7-[(3S)-3-methylpiperazin-1-yl]-4H-pyrido[1,2-a]pyrimidin-4-one], the IC50 fell in the range of 3 to 33 µM.

Turning to `Cc1cn2nc(-c3cc(=O)n4cc(N5CC(CN(C)C)C5)ccc4n3)cc2c(C)n1` [compound 780, 7-{3-[(dimethylamino)methyl]azetidin-1-yl}-2-(4,6-dimethylpyrazolo[1,5-a]pyrazin-2-yl)-4H-pyrido[1,2-a]pyrimidin-4-one], the IC50 was 1 to 3 µM. In turn, `CCc1nc(C)cn2nc(-c3cc(=O)n4cc(N5CCN[C@@H](C)C5)cc(C)c4n3)cc12` [compound 787, 2-(4-ethyl-6-methylpyrazolo[1,5-a]pyrazin-2-yl)-9-methyl-7-[(3S)-3-methylpiperazin-1-yl]-4H-pyrido[1,2-a]pyrimidin-4-one] came in with an IC50 of 3 to 33 µM.

`Cc1nc(C2=CCNCC2)cn2c(=O)cc(-c3ccc4nn(C)cc4c3)nc12` [compound 791, 9-methyl-2-(2-methyl-2H-indazol-5-yl)-7-(1,2,3,6-tetrahydropyridin-4-yl)-4H-pyrazino[1,2-a]pyrimidin-4-one]: the IC50 was less than 0.1 µM.

For `CCc1nc(C)cn2nc(-c3cc(=O)n4cc(C5CCN(CCO)CC5)cc(C)c4n3)cc12` [compound 793, 2-(4-ethyl-6-methylpyrazolo[1,5-a]pyrazin-2-yl)-7-[1-(2-hydroxyethyl)piperidin-4-yl]-9-methyl-4H-pyrido[1,2-a]pyrimidin-4-one], the concentration for half-maximal inhibition (IC50) fell in the range of 1 to 3 µM. In the case of `Cc1nc(C2CCNCC2)cn2c(=O)cc(-c3ccc4nn(C)cc4c3)nc12` [compound 796, 9-methyl-2-(2-methyl-2H-indazol-5-yl)-7-(piperidin-4-yl)-4H-pyrazino[1,2-a]pyrimidin-4-one], the IC50 is less than 0.1 µM. The molecule `Cc1ccc2nc(-c3cc(=O)n4cc(N5CCN(C)CC5)ccc4n3)cn2c1` [compound 836, 2-(6-methylimidazo[1,2-a]pyridin-2-yl)-7-(4-methylpiperazin-1-yl)-4H-pyrido[1,2-a]pyrimidin-4-one] returned an IC50 of 3 to 33 µM. Turning to `Cc1cc(=O)n2cc(-c3cc(=O)n4cc(N5CCNCC5)ccc4n3)ccc2n1` [compound 837, 2′-methyl-7-(piperazin-1-yl)-4H,4′H-2,7′-bipyrido[1,2-a]pyrimidine-4,4′-dione], the half-maximal inhibitory concentration (IC50) was 3 to 33 µM.

With `O=c1cc(-c2ccc(OC(F)F)c(F)c2)nc2ccc(N3CCNCC3)cn12` [compound 838, 2-[4-(difluoromethoxy)-3-fluorophenyl]-7-(piperazin-1-yl)-4H-pyrido[1,2-a]pyrimidin-4-one], the IC50 is 3 to 33 µM.

For the molecule `O=c1cc(-c2cnc(O)c(F)c2)nc2ccc(N3CCNCC3)cn12` [compound 839, 2-(5-fluoro-6-hydroxypyridin-3-yl)-7-(piperazin-1-yl)-4H-pyrido[1,2-a]pyrimidin-4-one], the IC50 was in the range of 3 to 33 µM. As to `Cc1nc(O)c2cc(-c3cc(=O)n4cc(N5CCNCC5)ccc4n3)ccc2n1` [compound 840, 2-(4-hydroxy-2-methylquinazolin-6-yl)-7-(piperazin-1-yl)-4H-pyrido[1,2-a]pyrimidin-4-one], the IC50 is 3 to 33 µM.

In general, IC50 refers to the point on the concentration scale where inhibition reaches its midpoint. Read a high IC50 as lower potency.
